Measured values as given in patent publication US20180002319A1, “MACROCYCLIC PICOLINAMIDE COMPOUNDS WITH FUNGICIDAL ACTIVITY” (DOW AGROSCIENCES LLC, priority 2014, published 2018).

Assays:
Type in all cases: in vivo
Erysiphe cichoracearum = assay: Powdery Mildew of Cucumber (ERYSCI) fungicidal activity; settings: Golovinomyces cichoracearum, 24 h, 1DP (1 Day Protectant), read-out: ERYSCI Disease Control
Protocol: Technical grades of materials were dissolved in acetone, which were then mixed with nine volumes of H2O containing 110 ppm Triton X-100. The fungicide solutions were applied onto wheat seedlings using an automated booth sprayer to run-off. All sprayed plants were allowed to air dry prior to further handling. All fungicides were evaluated using the aforementioned method for their activity vs. all target diseases, unless stated otherwise. Wheat leaf blotch and brown rust activity were also evaluated using track spray applications, in which case the fungicides were formulated as EC formulations, containing 0.1% Trycol 5941 in the spray solutions. Wheat plants (variety Yuma) were grown from seed in a greenhouse in 50% mineral soil/50% soil-less Metro mix until the first leaf was fully emerged, with 7-10 seedlings per pot. These plants were inoculated with an aqueous spore suspension of Zymoseptoria tritici either prior to or after fungicide treatments. After inoculation the plants were kept in 100% relative humidity (one day in a dark dew chamber followed by two to three days in a lighted dew chamber at 20° C.) to permit spores to germinate and infect the leaf. The plants were then transferred to a greenhouse set at 20° C. for disease to develop. When disease symptoms were fully expressed on the 1st leaves of untreated plants, infection levels were assessed on a scale of 0 to 100 percent disease severity. Percent disease control was calculated using the ratio of disease severity on treated plants relative to untreated plants. Example F: Evaluation of Fungicidal Activity: Powdery Mildew of Cucumber (Erysiphe cichoracearum; Bayer Code […]) Cucumber seedlings (variety Bush Pickle) were grown in soil-less Metro mix, with one plant per pot, and used in the test when 12 to 14 days old. Plants were inoculated with a spore suspension 24 hr following fungicide treatments. After inoculation the plants remained in the greenhouse set at 20° C. until disease was fully expressed. Fungicide formulation, application and disease assessment on the sprayed leaves followed the procedures as described in the Example A.

Cercospora beticola = assay: Leaf Spot of Sugar Beets (CERCBE) fungicidal activity; settings: 24 h, 1DP (1 Day Protectant), sugar beet, read-out: CERCBE Disease Control
Protocol: Technical grades of materials were dissolved in acetone, which were then mixed with nine volumes of H2O containing 110 ppm Triton X-100. The fungicide solutions were applied onto wheat seedlings using an automated booth sprayer to run-off. All sprayed plants were allowed to air dry prior to further handling. All fungicides were evaluated using the aforementioned method for their activity vs. all target diseases, unless stated otherwise. Wheat leaf blotch and brown rust activity were also evaluated using track spray applications, in which case the fungicides were formulated as EC formulations, containing 0.1% Trycol 5941 in the spray solutions. Wheat plants (variety Yuma) were grown from seed in a greenhouse in 50% mineral soil/50% soil-less Metro mix until the first leaf was fully emerged, with 7-10 seedlings per pot. These plants were inoculated with an aqueous spore suspension of Zymoseptoria tritici either prior to or after fungicide treatments. After inoculation the plants were kept in 100% relative humidity (one day in a dark dew chamber followed by two to three days in a lighted dew chamber at 20° C.) to permit spores to germinate and infect the leaf. The plants were then transferred to a greenhouse set at 20° C. for disease to develop. When disease symptoms were fully expressed on the 1st leaves of untreated plants, infection levels were assessed on a scale of 0 to 100 percent disease severity. Percent disease control was calculated using the ratio of disease severity on treated plants relative to untreated plants. Example G: Evaluation of Fungicidal Activity: Leaf Spot of Sugar Beets (Cercospora beticola; Bayer Code CERCBE) Sugar beet plants (variety HH88) were grown in soil-less Metro mix and trimmed regularly to maintain a uniform plant size prior to test. Plants were inoculated with a spore suspension 24 hr after fungicide treatments. Inoculated plants were kept in a dew chamber at 22° C. for 48 hr then incubated in a greenhouse set at 24° C. under a clear plastic hood with bottom ventilation until disease symptoms were fully expressed. Fungicide formulation, application and disease assessment on the sprayed leaves followed the procedures as described in the Example A.

[1] = system: Blumeria graminis f.sp. hordei; assay: Barley Powdery Mildew (ERYSGH) fungicidal activity; settings: 24 h, 1DP (1 Day Protectant), read-out: ERYSGH Disease Control
Protocol: Technical grades of materials were dissolved in acetone, which were then mixed with nine volumes of H2O containing 110 ppm Triton X-100. The fungicide solutions were applied onto wheat seedlings using an automated booth sprayer to run-off. All sprayed plants were allowed to air dry prior to further handling. All fungicides were evaluated using the aforementioned method for their activity vs. all target diseases, unless stated otherwise. Wheat leaf blotch and brown rust activity were also evaluated using track spray applications, in which case the fungicides were formulated as EC formulations, containing 0.1% Trycol 5941 in the spray solutions. Wheat plants (variety Yuma) were grown from seed in a greenhouse in 50% mineral soil/50% soil-less Metro mix until the first leaf was fully emerged, with 7-10 seedlings per pot. These plants were inoculated with an aqueous spore suspension of Zymoseptoria tritici either prior to or after fungicide treatments. After inoculation the plants were kept in 100% relative humidity (one day in a dark dew chamber followed by two to three days in a lighted dew chamber at 20° C.) to permit spores to germinate and infect the leaf. The plants were then transferred to a greenhouse set at 20° C. for disease to develop. When disease symptoms were fully expressed on the 1st leaves of untreated plants, infection levels were assessed on a scale of 0 to 100 percent disease severity. Percent disease control was calculated using the ratio of disease severity on treated plants relative to untreated plants. Example J: Evaluation of Fungicidal Activity: Barley Powdery Mildew (Blumeria graminis f.sp. hordei; Synonym: Erysiphe graminis f.sp. hordei; Bayer Code […]) Barley seedlings (variety Harrington) were propagated in soil-less Metro mix, with each pot having 8 to 12 plants, and used in the test when first leaf was fully emerged. Test plants were inoculated by dusting with infected stock plants 24 hr after fungicide treatments. After inoculation the plants were kept in a greenhouse set at 20° C. for disease to develop. Fungicide formulation, application and disease assessment on the sprayed leaves followed the procedures as described in the Example A.

SMILES | pest or weed control at 100 ppm (Erysiphe cichoracearum) [%] | pest or weed control at 100 ppm (Cercospora beticola) [%] | pest or weed control at 100 ppm [1] [%]
CCCCO[C@H]1CCOC[C@H](NC(=O)c2nccc(OC)c2OCOC(C)=O)C(=O)O[C@@H](C)[C@@H]1OCc1ccccc1 [Compound 2] | < 80 | > 80 | < 80
CCCCO[C@H]1CCOC[C@H](NC(=O)c2nccc(OC)c2OCOC(C)=O)C(=O)O[C@@H](C)[C@@H]1OC(=O)C(C)C [Compound 3] |  | < 80 | < 80
CCCCO[C@H]1CCOC[C@H](NC(=O)c2nccc(OC)c2OCOC(C)=O)C(=O)O[C@@H](C)[C@@H]1OC(=O)c1ccccc1 [Compound 4] |  | < 80 | < 80
CCCCO[C@H]1CCOC[C@H](NC(=O)c2nccc(OC)c2OCOC(C)=O)C(=O)O[C@@H](C)[C@@H]1OC(=O)C1CC1 [Compound 5] |  | < 80 | 
COc1ccnc(C(=O)N[C@H]2COCC[C@@H](OCC(C)C)[C@@H](OCC(C)C)[C@H](C)OC2=O)c1OCOC(C)=O [Compound 6] |  | > 80 | 
CCCCCO[C@H]1[C@H](C)OC(=O)[C@@H](NC(=O)c2nccc(OC)c2OCOC(C)=O)CCCC[C@@H]1Oc1ccccc1 [Compound 17] | < 80 | > 80 | < 80
CCCO[C@H]1[C@H](C)OC(=O)[C@@H](NC(=O)c2nccc(OC)c2OCOC(C)=O)CCCC[C@@H]1Oc1ccccc1 [Compound 18] | < 80 | > 80 | < 80
COc1ccnc(C(=O)N[C@H]2CCCC[C@H](Oc3ccccc3)[C@@H](Oc3ccccc3)[C@H](C)OC2=O)c1OCOC(C)=O [Compound 19] | < 80 | > 80 | < 80
COc1ccnc(C(=O)N[C@H]2COCC[C@H](Cc3ccccc3)[C@@H](OCC(C)C)[C@H](C)OC2=O)c1OCOC(C)=O [Compound 20] | < 80 | > 80 | < 80
COc1ccnc(C(=O)N[C@H]2COCC[C@H](Cc3ccccc3)[C@@H](OCC(C)C)[C@H](C)OC2=O)c1OC(C)=O [Compound 21] | < 80 | < 80 | < 80
COc1ccnc(C(=O)N[C@H]2CCOC[C@H](Oc3ccccc3)[C@@H](Oc3ccccc3)[C@H](C)OC2=O)c1OCOC(C)=O [Compound 37] |  | > 80 | 
